Source: patent US8912176B2 (Evotec AG, priority 2009, dated 2014)

Molecular target: human H3 receptor (Homo sapiens, UniProt Q9Y5N1)
Test: cAMP quantification assay for human H3 receptor (DiscoveRx cAMP XS+)

Chain of human H3 receptor (Q9Y5N1 whole entry): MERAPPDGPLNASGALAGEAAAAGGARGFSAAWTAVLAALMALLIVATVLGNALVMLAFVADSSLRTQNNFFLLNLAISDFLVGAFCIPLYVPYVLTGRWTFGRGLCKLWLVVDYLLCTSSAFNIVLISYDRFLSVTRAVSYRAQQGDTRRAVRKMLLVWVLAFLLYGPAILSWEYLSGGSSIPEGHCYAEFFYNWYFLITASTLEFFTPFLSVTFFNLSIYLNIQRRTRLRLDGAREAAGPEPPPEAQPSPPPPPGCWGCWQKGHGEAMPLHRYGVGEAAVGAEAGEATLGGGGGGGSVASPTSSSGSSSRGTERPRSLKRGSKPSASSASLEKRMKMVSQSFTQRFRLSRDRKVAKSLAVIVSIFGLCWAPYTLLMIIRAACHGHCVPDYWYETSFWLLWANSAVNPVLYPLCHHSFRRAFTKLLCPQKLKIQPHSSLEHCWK

IC50 [nM] | Structure (SMILES)
< 50 | O=C(c1ccc(-n2ccnc2)nc1)N1CC(C(=O)N2CCCN(C3CCC3)CC2)C1 [Example 12, 1-cyclobutyl-4-[(1-{[6-(1H-imidazol-1-yl)pyridin-3-yl]carbonyl}azetidin-3-yl)carbonyl]-1,4-diazepane]
100 to 5000 | Cc1ccc(C(=O)N2CC(C(=O)N3CCCN(CC4CC4)CC3)C2)cn1 [Example 83, 1-(cyclopropylmethyl)-4-({1-[(6-methylpyridin-3-yl)carbonyl]azetidin-3-yl}carbonyl)-1,4-diazepane]
< 50 | N#Cc1ccc(C(=O)N2CC(C(=O)N3CCCN(C4CCC4)CC3)C2)cc1 [Example 6, 4-({3-[(4-cyclobutyl-1,4-diazepan-1-yl)carbonyl]azetidin-1-yl}carbonyl)benzonitrile]
< 50 | CN(Cc1ccc(F)cc1)C(=O)N1CC(C(=O)N2CCCN(C3CCC3)CC2)C1 [Example 62, 3-[(4-cyclobutyl-1,4-diazepan-1-yl)carbonyl]-N-(4-fluorobenzyl)-N-methylazetidine-1-carboxamide]
< 50 | COC(=O)c1ccc(C(=O)N2CC(C(=O)N3CCCN(C4CCC4)CC3)C2)cn1 [Example 7, methyl 5-({3-[(4-cyclobutyl-1,4-diazepan-1-yl)carbonyl]azetidin-1-yl}carbonyl)pyridine-2-carboxylate]
100 to 5000 | O=C(CC1CCOCC1)N1CC(C(=O)N2CCCN(C3CCC3)CC2)C1 [Example 53, 1-cyclobutyl-4-{[1-(tetrahydro-2H-pyran-4-ylacetyl)azetidin-3-yl]carbonyl}-1,4-diazepane]
100 to 5000 | Cc1ccc(C(=O)N2CC(C(=O)N3CCN(C4CCC4)CC3)C2)cn1 [Example 87, 1-cyclobutyl-4-({1-[(6-methylpyridin-3-yl)carbonyl]azetidin-3-yl}carbonyl)piperazine]
< 50 | CN(CC1CCCCC1)C(=O)N1CC(C(=O)N2CCCN(C3CCC3)CC2)C1 [Example 60, 3-[(4-cyclobutyl-1,4-diazepan-1-yl)carbonyl]-N-(cyclohexylmethyl)-N-methylazetidine-1-carboxamide]
< 50 | O=C(C1CN(S(=O)(=O)c2ccccc2)C1)N1CCCN(C2CCC2)CC1 [Example 26, 1-cyclobutyl-4-{[1-(phenylsulfonyl)azetidin-3-yl]carbonyl}-1,4-diazepane]
< 50 | CC(C)(O)c1ccc(C(=O)N2CC(C(=O)N3CCCN(C4CCC4)CC3)C2)cn1 [Example 76, 2-[5-({3-[(4-cyclobutyl-1,4-diazepan-1-yl)carbonyl]azetidin-1-yl}carbonyl)pyridin-2-yl]propan-2-ol]
< 50 | O=C(c1ccc(-n2cncn2)nc1)N1CC(C(=O)N2CCCN(C3CCC3)CC2)C1 [Example 13, 1-cyclobutyl-4-[(1-{[6-(1H-1,2,4-triazol-1-yl)pyridin-3-yl]carbonyl}azetidin-3-yl)carbonyl]-1,4-diazepane]
< 50 | O=C(OCc1ccccc1)N1CC(C(=O)N2CCCN(C3CCC3)CC2)C1 [Example 1, benzyl 3-[(4-cyclobutyl-1,4-diazepan-1-yl)carbonyl]azetidine-1-carboxylate]
< 50 | Cc1cc(C(=O)N2CC(C(=O)N3CCCN(C4CCC4)CC3)C2)ccn1 [Example 75, 1-cyclobutyl-4-({1-[(2-methylpyridin-4-yl)carbonyl]azetidin-3-yl}carbonyl)-1,4-diazepane]
< 50 | N#Cc1ccc(NC(=O)N2CC(C(=O)N3CCCN(C4CCC4)CC3)C2)cc1 [Example 59, N-(4-cyanophenyl)-3-[(4-cyclobutyl-1,4-diazepan-1-yl)carbonyl]azetidine-1-carboxamide]
< 50 | O=C(Cc1ccc(Cl)cc1)N1CC(C(=O)N2CCCN(C3CCC3)CC2)C1 [Example 54, 1-({1-[(4-chlorophenyl)acetyl]azetidin-3-yl}carbonyl)-4-cyclobutyl-1,4-diazepane]
< 50 | Cc1cnc(C(=O)N2CC(C(=O)N3CCCN(C4CCC4)CC3)C2)cn1 [Example 9, 1-cyclobutyl-4-({1-[(5-methylpyrazin-2-yl)carbonyl]azetidin-3-yl}carbonyl)-1,4-diazepane]
< 50 | Cc1noc(-c2ccc(C(=O)N3CC(C(=O)N4CCCN(C5CCC5)CC4)C3)cc2)n1 [Example 41, 1-cyclobutyl-4-[(1-{[4-(3-methyl-1,2,4-oxadiazol-5-yl)phenyl]carbonyl}azetidin-3-yl)carbonyl]-1,4-diazepane]
< 50 | CCC(=O)N1CC(C(=O)N2CCCN(C3CCC3)CC2)C1 [Example 71, 1-cyclobutyl-4-[(1-propanoylazetidin-3-yl)carbonyl]-1,4-diazepane]
< 50 | O=C(NCC1CCCCC1)N1CC(C(=O)N2CCCN(C3CCC3)CC2)C1 [Example 56, 3-[(4-cyclobutyl-1,4-diazepan-1-yl)carbonyl]-N-(cyclohexylmethyl)azetidine-1-carboxamide]

IC50 [nM] | Structure (SMILES)
< 50 | Cc1ccc(CC(=O)N2CC(C(=O)N3CCCN(C4CCC4)CC3)C2)cn1 [Example 43, 1-cyclobutyl-4-({1-[(6-methylpyridin-3-yl)acetyl]azetidin-3-yl}carbonyl)-1,4-diazepane]
< 50 | O=C(CN1CCC(F)(F)CC1)N1CC(C(=O)N2CCCN(C3CCC3)CC2)C1 [Example 20, 1-cyclobutyl-4-({1-[(4,4-difluoropiperidin-1-yl)acetyl]azetidin-3-yl}carbonyl)-1,4-diazepane]
< 50 | Cc1cc(C)n(-c2ccc(C(=O)N3CC(C(=O)N4CCCN(C5CCC5)CC4)C3)cc2)n1 [Example 30, 1-cyclobutyl-4-[(1-{[4-(3,5-dimethyl-1H-pyrazol-1-yl)phenyl]carbonyl}azetidin-3-yl)carbonyl]-1,4-diazepane]
< 50 | Cc1nc(-c2cccc(C(=O)N3CC(C(=O)N4CCCN(C5CCC5)CC4)C3)c2)cs1 [Example 46, 1-cyclobutyl-4-[(1-{[3-(2-methyl-1,3-thiazol-4-yl)phenyl]carbonyl}azetidin-3-yl)carbonyl]-1,4-diazepane]
< 50 | O=C(C1CN(C(=O)C2CCC(F)(F)CC2)C1)N1CCCN(C2CCC2)CC1 [Example 29, 1-cyclobutyl-4-({1-[(4,4-difluorocyclohexyl)carbonyl]azetidin-3-yl}carbonyl)-1,4-diazepane]
50 to 100 | COc1ccc(S(=O)(=O)N2CC(C(=O)N3CCCN(C4CCC4)CC3)C2)cc1 [Example 23, 1-cyclobutyl-4-({1-[(4-methoxyphenyl)sulfonyl]azetidin-3-yl}carbonyl)-1,4-diazepane]
< 50 | CN(CC1CCOCC1)C(=O)N1CC(C(=O)N2CCCN(C3CCC3)CC2)C1 [Example 61, 3-[(4-cyclobutyl-1,4-diazepan-1-yl)carbonyl]-N-methyl-N-(tetrahydro-2H-pyran-4-ylmethyl)azetidine-1-carboxamide]
< 50 | O=C(c1ccc(OC2CCOCC2)cc1)N1CC(C(=O)N2CCCN(C3CCC3)CC2)C1 [Example 11, 1-cyclobutyl-4-[(1-{[4-(tetrahydro-2H-pyran-4-yloxy)phenyl]carbonyl}azetidin-3-yl)carbonyl]-1,4-diazepane]
< 50 | Cc1ccc(C(=O)N2CC(C(=O)N3CCCN(C4CCCC4)CC3)C2)cn1 [Example 81, 1-cyclopentyl-4-({1-[(6-methylpyridin-3-yl)carbonyl]azetidin-3-yl}carbonyl)-1,4-diazepane]
< 50 | O=C(Cn1cccn1)N1CC(C(=O)N2CCCN(C3CCC3)CC2)C1 [Example 15, 1-cyclobutyl-4-{[1-(1H-pyrazol-1-ylacetyl)azetidin-3-yl]carbonyl}-1,4-diazepane]
< 50 | O=C(C1CN(C(=O)C2CCCCC2)C1)N1CCCN(C2CCC2)CC1 [Example 4, 1-cyclobutyl-4-{[1-(cyclohexylcarbonyl)azetidin-3-yl]carbonyl}-1,4-diazepane]
< 50 | Cc1ccc(C(=O)N2CC(C(=O)N3CCCN(C4CCCCC4)CC3)C2)cn1 [Example 82, 1-cyclohexyl-4-({1-[(6-methylpyridin-3-yl)carbonyl]azetidin-3-yl}carbonyl)-1,4-diazepane]
< 50 | Cc1ccc(C(=O)N2CC(C(=O)N3CCCN(C4CCC4)CC3)C2)cn1 [Example 10, 1-cyclobutyl-4-({1-[(6-methylpyridin-3-yl)carbonyl]azetidin-3-yl}carbonyl)-1,4-diazepane]
< 50 | CS(=O)(=O)c1ccc(C(=O)N2CC(C(=O)N3CCCN(C4CCC4)CC3)C2)cc1 [Example 55, 1-cyclobutyl-4-[(1-{[4-(methylsulfonyl)phenyl]carbonyl}azetidin-3-yl)carbonyl]-1,4-diazepane]
< 50 | O=C(c1ccc(-n2cncn2)cc1)N1CC(C(=O)N2CCCN(C3CCC3)CC2)C1 [Example 73, 1-cyclobutyl-4-[(1-{[4-(1H-1,2,4-triazol-1-yl)phenyl]carbonyl}azetidin-3-yl)carbonyl]-1,4-diazepane]
< 50 | O=C(c1ccc(-c2cccnc2)cc1)N1CC(C(=O)N2CCCN(C3CCC3)CC2)C1 [Example 44, 1-cyclobutyl-4-({1-[(4-pyridin-3-ylphenyl)carbonyl]azetidin-3-yl}carbonyl)-1,4-diazepane]
< 50 | O=C(C1CN(S(=O)(=O)CC2CCCC2)C1)N1CCCN(C2CCC2)CC1 [Example 25, 1-cyclobutyl-4-({1-[(cyclopentylmethyl)sulfonyl]azetidin-3-yl}carbonyl)-1,4-diazepane]
< 50 | CCN1CCCN(C(=O)C2CN(C(=O)c3ccc(C)nc3)C2)CC1 [Example 80, 1-ethyl-4-({1-[(6-methylpyridin-3-yl)carbonyl]azetidin-3-yl}carbonyl)-1,4-diazepane]

Structure (SMILES) | IC50 [nM]
O=C(Oc1ccc(Cl)cc1)N1CC(C(=O)N2CCCN(C3CCC3)CC2)C1 [Example 67, 4-chlorophenyl 3-[(4-cyclobutyl-1,4-diazepan-1-yl)carbonyl]azetidine-1-carboxylate] | < 50
